From paper PMC5004175, “Abcb1 in Pigs: Molecular cloning, tissues distribution, functional analysis, and its effect on pharmacokinetics of enrofloxacin” (Scientific Reports, 2016) come the findings set out here.

Read-outs that look alike come from different tables or passages of the source. A value given as a limit tells only on which side of the number the result lay.

Broadly, the Papp A→B is how fast a substance crosses the layer from the apical side. As usually defined, the Papp B→A is the apparent permeability from the basolateral to the apical side of a cell layer. For orientation: Cmax means the highest concentration seen after dosing. The Tmax is the time at which the peak concentration occurs.

Series [1] concerns P-gp. In words: P-gp inhibition (data not shown).
A short description of series [2]: Bidirectional transport assay of enrofloxacin in MDCK parental cell monolayers. It counts as in vitro ADME, canine. The settings on record: dog, MDCK cells, enrofloxacin 12 μM alone. As for the experimental part:
(§1) Transport assays were carried out as described[45] with minor modifications. MDCK and MDCK-pAbcb1 with a density of 6.6 × 10^4 cells/insert were seeded on a polyethylene terephthalate membrane insert (Millicell cell culture inserts, 1.0 μm pore size, 6.5 mm diameter) in 24-well culture plates. […] Samples were stored at −20 °C. All experiments were conducted in triplicate.
(§2) In brief, plasma was thawed at room temperature and centrifuged at 2,000 × g for 5 min. […] The organic phase was evaporated to dryness under a nitrogen stream and residue was resuspended with mobile phase solution. The samples from the transport assays were directly evaporated to dryness under a nitrogen stream and 40 μL of the mobile phase solution was used to concentrate the samples for 5 times. Twenty microliters of the mixture were injected into the HPLC column (Kromasil C18 columns, […] particle size, 250 × 4.6 mm). The mobile phase composition was 0.1 M phosphoric acid (adjusted pH to 3.5 with triethylamine)/acetonitrile (84:16, v/v) and the flow rate of mobile phase was set to 0.85 mL/min. UV absorbance was measured at 278 nm.
(§3) Apparent permeability coefficients (Papp) were calculated using the following equation: Papp = (dQ/dt)/(A × C0), where A is the area of filter membrane, C0 is the initial concentration of the test drug, dQ is the amount of transported drug, and dt is time elapsed. The efflux ratio (ER) was calculated from (Papp B → A)/(Papp A → B)[59]. Where Papp B → A and Papp A → B are BL to AP and AP to BL apparent permeability coefficients, respectively. The net efflux ratio was calculated using the following equation: Net efflux ratio = efflux ratio in MDCK-pAbcb1/efflux ratio in MDCK.

For series [3], the system named is porcine P-gp. The series is described as follows: Bidirectional transport assay of enrofloxacin in MDCK-pAbcb1 cell monolayers. In kind it is in vitro ADME, pig. The protocol:
as §1, §2, §3

Series [4] in a line: in vivo. The settings on record: pig, plasma, po, 10 mg/kg.
Series [5] in a line: Pharmacokinetics of oral enrofloxacin in healthy pigs with/without verapamil. The settings on record: enrofloxacin 10 mg/kg po alone, mean ± SEM, n = 4.
A short description of series [6]: Tolerability of P-gp inhibitor pre-treatment in piglets. The settings on record: piglets treated with the P-gp inhibitor; dose not given. It counts as in vivo.
The test system of series [7] is porcine P-gp. The settings on record: 5 μM Rho123, during 2 h, p < 0.01.

Take `COc1ccc2cc3[n+](cc2c1OC)CCc1cc2c(cc1-3)OCO2` [Berberine]: the “Inhibition of P-gp” value in series [1] is “can significantly inhibit P-gp”.
As to `CCN1CCN(c2cc3c(cc2F)c(=O)c(C(=O)O)cn3C2CC2)CC1` [ENRO, enrofloxacin], in series [2] (120 min, mean ± SEM, n = 3), the Papp A→B at 120 min, 12 μM was determined as 12.3 ± 0.59 ×10⁻⁶ cm/s and the Papp B→A at 120 min, 12 μM was determined as 12.9 ± 1.65 ×10⁻⁶ cm/s. Also, the efflux ratio at 120 min, 12 μM in series [2] (Papp B→A / Papp A→B) turned out to be 1.04 ± 0.11. For the same compound, the Net efflux ratio in series [3] (enrofloxacin 12 μM alone, efflux ratio in MDCK-pAbcb1 / efflux ratio in MDCK) was found to be 2.48. In series [3] (pig, MDCK-MDR1, MDCK-pAbcb1 cells, enrofloxacin 12 μM alone, 120 min, mean ± SEM, n = 3), this compound came in with a Papp B→A at 120 min, 12 μM of 19.9 ± 1.57 ×10⁻⁶ cm/s. The efflux ratio at 120 min, 12 μM in series [3] (pig, MDCK-pAbcb1, MDCK-pAbcb1 cells, enrofloxacin 12 μM alone, Papp B→A / Papp A→B, read-out: Efflux ratio) amounted to 2.58 ± 0.25. In addition, the efflux ratio at 120 min, 12 μM in series [3] (pig, MDCK-pAbcb1, enrofloxacin 12 μM alone, efflux ratio in MDCK-pAbcb1 / efflux ratio in MDCK, read-out: Net efflux ratio) was above 2. For the same compound, the Papp A→B at 120 min, 12 μM in series [3] (pig, MDCK-pAbcb1 cells, enrofloxacin 12 μM alone, 120 min, mean ± SEM, n = 3) is 7.78 ± 1.28 ×10⁻⁶ cm/s. For the same compound, in series [4], the concentration peaked (Cmax) at 3390 ± 120 ng/mL, the time of peak concentration (Tmax) came out at 2.01 ± 0.09 h and the k el was 7.78e-05 s⁻¹. Besides, in series [5], the “AUC (area under the plasma concentration-time curve)” value is reported as 13.57 ± 0.96 (μg/mL)·h. In series [5] (plasma), the “CL/F (Clearance/F)” value is 0.47 ± 0.01 (mg/kg/h)/(μg/mL), the “Ka (absorption rate constant)” value amounted to 0.82 ± 0.11 h⁻¹, the “T1/2ka (absorption half-life)” value was determined as 0.88 ± 0.20 h and the “T1/2ke (elimination half-life)” value is given as 2.50 ± 0.23 h. In addition, the “V/F (volume of distribution/F)” value in series [5] (plasma) is given as 1.69 ± 0.18 (mg/kg)/(μg/mL).
Consider `C/C=C/C[C@@H](C)C(=O)[C@H]1C(=O)N[C@@H](C(C)C)C(=O)N(C)CC(=O)N(C)[C@@H](CC(C)C)C(=O)N[C@@H](C(C)C)C(=O)N(C)[C@@H](CC(C)C)C(=O)N[C@@H](C)C(=O)N[C@H](C)C(=O)N(C)[C@@H](CC(C)C)C(=O)N(C)[C@@H](CC(C)C)C(=O)N(C)[C@@H](C(C)C)C(=O)N1C` [PSC-833], for which the “Adverse effect in treated piglets” value in series [6] is “some animals began vomiting”.
With `COC(=O)c1ccccc1-c1c2ccc(=N)cc-2oc2cc(N)ccc12` [Rho123, rhodamine 123], in series [7], the “Accumulation of Rho123 in MDCK-pAbcb1 cells compared with MDCK cells” value is given as “accumulated less Rho123 than MDCK cells”.
